Molecular target: FAK (Homo sapiens (Human), UniProt Q05397)
Assay: FAK Degradation Assay (Western blot, FAK/GAPDH)
Assay type: cell-based
Settings: MDA-MB-231 cells, 24 h treatment, Western blot normalized to DMSO; for DC50: read-out: DC50 (half-maximal degradation concentration), FAK Degradation; for Dmax: read-out: Dmax (maximal degradation), FAK Degradation
Procedure: H2122 (4×10^5), MIA PaCa-2 (6×10s), or MDA-MB-231 cells (6×10^5) per well were seeded into a 6-well plate containing 2 mL of complete culture medium (RPMI-1640 for H2122 and MDA-MB-231, and DMEM/F12 for MIA PaCa-2, supplemented with 10% FBS and 1% penicillin/streptomycin). The cells were cultured overnight at 37° C. in the presence of 5% C02 before treated with a compound in a series of concentrations for 24 h. The cells were then washed with ice-cold Dulbecco's phosphate-buffered saline (DPBS). A radioimmuno-precipitation assay (RIPA) buffer was added to lyse the cells on ice for 20 min. The cells were then scrapped using cell scraper and collected in a 1.5 mL tube, which was centrifuged at 14,000 g and 4° C. for 15 min. The supernatant was collected and the total protein concentration of each sample was determined using a PIERCE™ BCA protein assay kit. The supernatant was diluted to the same protein concentration with the RIPA buffer after the BCA assay. Samples of the same protein amount were mixed with 4× a lithium dodecyl sulfate (LDS) sample buffer and boiled at 95° C. for 5 min. The denatured samples were used for electrophoresis.
For Western blot, the same volume containing ˜50 μg protein for each sample was loaded onto 4-12% Bis-Tris protein gel. The gel was run at 80 V for 0.5 h and at 120 V for 1 h. When the electrophoresis was completed, an IBLOT™ 2 gel transfer device was used to transfer FAK and GAPDH proteins at 20 V for 7 min. All the membranes were blocked in 5% nonfat dry milk in a TBST buffer at RT for 1 h and then incubated with primary antibodies (anti-FAK and anti-GAPDH) in a TBST buffer containing 5% BSA at 4° C. overnight. The membranes were washed with the TBST buffer and then incubated with secondary antibodies (goat anti-rabbit IgG H&L for FAK and goat anti-mouse IgG H&L for GAPDH) at room temperature for 1 h. Blots were visualized using an IMAGEQUANT™ LAS-4000. The chemiluminescent signals from ECL™ Western blotting reagents were captured. The band integrated intensity from each 16-bit blot image was used for quantitation. The FAK/GAPDH signal ratios of each sample were normalized using DMSO as a control and the normalized data for each compound were used to obtain its half-maximal degradation concentration (DC50) and maximal degradation (Dmax).

Sequence of FAK (Q05397 whole entry): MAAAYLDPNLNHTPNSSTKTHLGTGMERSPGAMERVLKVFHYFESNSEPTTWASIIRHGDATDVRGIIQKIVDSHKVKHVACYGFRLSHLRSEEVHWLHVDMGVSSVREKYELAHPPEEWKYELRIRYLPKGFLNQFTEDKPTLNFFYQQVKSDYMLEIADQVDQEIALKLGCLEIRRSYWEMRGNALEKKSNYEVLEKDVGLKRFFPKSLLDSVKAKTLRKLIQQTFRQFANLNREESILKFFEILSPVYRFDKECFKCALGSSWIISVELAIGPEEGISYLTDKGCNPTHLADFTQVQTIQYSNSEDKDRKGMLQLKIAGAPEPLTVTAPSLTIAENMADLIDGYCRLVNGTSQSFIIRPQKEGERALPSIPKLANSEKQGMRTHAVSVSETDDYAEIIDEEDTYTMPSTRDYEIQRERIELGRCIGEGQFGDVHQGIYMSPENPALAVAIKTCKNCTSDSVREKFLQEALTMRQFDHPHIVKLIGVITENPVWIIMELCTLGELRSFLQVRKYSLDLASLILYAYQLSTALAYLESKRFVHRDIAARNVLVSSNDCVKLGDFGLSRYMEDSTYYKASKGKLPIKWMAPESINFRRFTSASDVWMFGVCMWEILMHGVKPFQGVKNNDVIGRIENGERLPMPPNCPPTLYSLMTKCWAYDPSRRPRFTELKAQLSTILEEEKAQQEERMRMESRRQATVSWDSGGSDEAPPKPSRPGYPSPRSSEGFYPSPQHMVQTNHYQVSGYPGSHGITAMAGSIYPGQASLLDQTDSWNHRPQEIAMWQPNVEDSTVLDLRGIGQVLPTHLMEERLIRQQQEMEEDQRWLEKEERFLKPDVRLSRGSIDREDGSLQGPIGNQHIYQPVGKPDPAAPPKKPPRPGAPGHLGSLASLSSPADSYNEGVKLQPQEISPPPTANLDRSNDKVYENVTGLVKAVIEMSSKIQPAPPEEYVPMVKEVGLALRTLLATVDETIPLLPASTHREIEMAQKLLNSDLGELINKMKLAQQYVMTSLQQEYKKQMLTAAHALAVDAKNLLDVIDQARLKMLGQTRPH

Structure (SMILES)	DC50	Dmax
CNC(=O)c1ccccc1Nc1cc(Nc2ccc(CNC3CCN(c4ccc5c(c4)C(=O)N(C4CCC(=O)NC4=O)C5=O)CC3)cc2)ncc1C(F)(F)F (stereo not shown) [Compound A22, 2-((2-((4-(((1-(2-(2,6-Dioxopiperidin-3-yl)-1,3-dioxoisoindolin-5-yl)piperidin-4-yl)amino)methyl)phenyl)amino)-5-(trifluoromethyl}pyridin-4-yl)amino)-N-methylbenzamide]	3500 pM	93%
CS(=O)(=O)c1cccc(CNc2nc(Nc3ccc4c(c3)CC(=O)N4CC3CCN(c4ccc5c(c4)C(=O)N(C4CCC(=O)NC4=O)C5=O)CC3)ncc2C(F)(F)F)c1 (stereo not shown) [Compound A23, 2-(2,6-dioxopiperidin-3-yl)-5-(4-((5-((4-((3-(methylsulfonyl)benzyl)amino)-5-(trifluoromethyl)pyrimidin-2-yl)amino)-2-oxoindolin-1-yl)methyl)piperidin-1-yl)isoindoline-1,3-dione]	1300 pM	96%
CS(=O)(=O)c1cccc(CNc2nc(Nc3ccc(CNC4CCN(c5ccc6c(c5)C(=O)N(C5CCC(=O)NC5=O)C6=O)CC4)cc3)ncc2C(F)(F)F)c1 (stereo not shown) [Compound A24, 2-(2,6-Dioxopiperidin-3-yl)-5-(4-((4-((4-((3-(methylsulfonyl)benzyl)amino)-5-(trifluoromethyl)pyrimidin-2-yl)amino)benzyl)amino)piperidin-1-yl)isoindoline-1,3-dione]	700 pM	87%
CNC(=O)c1ccccc1Nc1nc(Nc2ccc(CNC3CCN(c4ccc5c(c4)C(=O)N(C4CCC(=O)NC4=O)C5=O)CC3)cc2)ncc1C(F)(F)F (stereo not shown) [Compound A25, 2-((2-((4-(((1-(2-(2,6-dioxopiperidin-3-yl)-1,3-dioxoisoindolin-5-yl)piperidin-4-yl)amino)methyl)phenyl)amino)-5-(trifluoromethyl)pyrimidin-4-yl)amino)-N-methylbenzamide]	130 pM	97%
O=C1CCC(N2C(=O)c3ccc(N4CCC(NCc5ccc(Nc6ncc(C(F)(F)F)c(Oc7cccc8c7C(=O)CC8)n6)cc5)CC4)cc3C2=O)C(=O)N1 (stereo not shown) [Compound A27, 2-(2,6-dioxopiperidin-3-yl)-5-(4-((4-((4-((3-oxo-2,3-dihydro-1H-inden-4-yl)oxy)-5-(trifluoromethyl)pyrimidin-2-yl)amino)benzyl)amino)piperidin-1-yl)isoindoline-1,3-dione]	1300 pM	94%
CN1Cc2cccc(Oc3nc(Nc4ccc(CNC5CCN(c6ccc7c(c6)C(=O)N(C6CCC(=O)NC6=O)C7=O)CC5)cc4)ncc3C(F)(F)F)c2C1=O (stereo not shown) [Compound A28, 2-(2,6-dioxopiperidin-3-yl)-5-(4-((4-((4-((2-methyl-3-oxoisoindolin-4-yl)oxy)-5-(trifluoromethyl)pyrimidin-2-yl)amino)benzyl)amino)piperidin-1-yl)isoindoline-1,3-dione]	870 pM	91%
CNC(=O)c1ccccc1Nc1cc(Nc2ccc(CNC3CCN(c4ccc5c(c4)C(=O)N(C4CCC(=O)NC4=O)C5=O)CC3)c(F)c2)ncc1C(F)(F)F (stereo not shown) [Compound A29, 2-((2-((4-(((1-(2-(2,6-dioxopiperidin-3-yl)-1,3-dioxoisoindolin-5-yl)piperidin-4-yl)amino)-methyl)-3-fluorophenyl)amino)-5-(trifluoromethyl)pyridin-4-yl)amino)-N-methyl-benzamide]	8550 pM	97%
CN(c1nccnc1CNc1nc(Nc2ccc(CNC3CCN(c4ccc5c(c4)C(=O)N(C4CCC(=O)NC4=O)C5=O)CC3)c(F)c2)ncc1C(F)(F)F)S(C)(=O)=O (stereo not shown) [Compound A30, N-(3-(((2-((4-(((1-(2-(2,6-dioxopiperidin-3-yl)-1,3-dioxoisoindolin-5-yl)piperidin-4-yl)amino)methyl)-3-fluorophenyl)amino)-5-(trifluoromethyl)pyrimidin-4-yl)amino)methyl)-pyrazin-2-yl)-N-methylmethanesulfonamide]	1300 pM	96%
CN(c1cccc(CNc2cc(Nc3ccc(CNC4CCN(c5ccc6c(c5)C(=O)N(C5CCC(=O)NC5=O)C6=O)CC4)c(F)c3)ncc2C(F)(F)F)c1)S(C)(=O)=O (stereo not shown) [Compound A31, N-(3-(((2-((4-(((1-(2-(2,6-Dioxopiperidin-3-yl)-1,3-dioxoisoindolin-5-yl)-piperidin-4-yl)amino)methyl)-3-fluorophenyl)amino)-5-(trifluoromethyl)pyridin-4-yl)amino)-methyl)phenyl)-N-methylmethanesulfonamide]	6100 pM	98%
CNC(=O)c1ccccc1Nc1cc(Nc2ccc(CN[C@@H]3CCN(c4ccc5c(c4)C(=O)N(C4CCC(=O)NC4=O)C5=O)C3)cc2)ncc1C(F)(F)F (stereo partly drawn) [Compound A32, 2-((2-((4-((((3R)-1-(2-(2,6-Dioxopiperidin-3-yl)-1,3-dioxoisoindolin-5-yl)-pyrrolidin-3-yl)amino)methyl)phenyl)amino)-5-(trifluoromethyl)pyridin-4-yl)amino)-N-methylbenzamide]	790 pM	91%
CNC(=O)c1ccccc1Nc1cc(Nc2ccc(CN[C@H]3CCN(c4ccc5c(c4)C(=O)N(C4CCC(=O)NC4=O)C5=O)C3)cc2)ncc1C(F)(F)F (stereo partly drawn) [Compound A33, 2-((2-((4-((((3S)-1-(2-(2,6-Dioxopiperidin-3-yl)-1,3-dioxoisoindolin-5-yl)-pyrrolidin-3-yl)amino)methyl)phenyl)amino)-5-(trifluoromethyl)pyridin-4-yl)amino)-N-methylbenzamide]	860 pM	94%
CS(=O)(=O)c1ccccc1Nc1cc(Nc2ccc(CNC3CCN(c4ccc5c(c4)C(=O)N(C4CCC(=O)NC4=O)C5=O)CC3)cc2)ncc1C(F)(F)F (stereo not shown) [Compound A34, 2-(2,6-Dioxopiperidin-3-yl)-5-(4-((4-((4-((2-(methylsulfonyl)phenyl)amino)-5-(trifluoromethyl)pyridin-2-yl)amino)benzyl)amino)piperidin-1-yl)isoindoline-1,3-dione]	25000 pM	83%
CN(c1ccccc1CNc1cc(Nc2ccc(CNC3CCN(c4ccc5c(c4)C(=O)N(C4CCC(=O)NC4=O)C5=O)CC3)c(F)c2)ncc1C(F)(F)F)S(C)(=O)=O (stereo not shown) [Compound A35, N-(2-(((2-((4-(((1-(2-(2,6-Dioxopiperidin-3-yl)-1,3-dioxoisoindolin-5-yl)-piperidin-4-yl)amino)methyl)-3-fluorophenyl)amino)-5-(trifluoromethyl)pyridin-4-yl)amino)-methyl)phenyl)-N-methylmethanesulfonamide]	8100 pM	95%
CN(c1nccnc1CNc1nc(Nc2ccc(CN[C@@H]3CCN(c4ccc5c(c4)C(=O)N(C4CCC(=O)NC4=O)C5=O)C[C@@H]3F)cc2)ncc1C(F)(F)F)S(C)(=O)=O (stereo partly drawn) [Compound A36, N-(3-(((2-((4-((((3S,4R)-1-(2-(2,6-Dioxopiperidin-3-yl)-1,3-dioxoisoindolin-5-yl)-3-fluoropiperidin-4-yl)amino)methyl)phenyl)amino)-5-(trifluoromethyl)pyrimidin-4-yl)amino)-methyl)pyrazin-2-yl)-N-methylmethanesulfonamide]	830 pM	94%
CNC(=O)c1ccccc1Nc1nc(Nc2ccc(CNC3CCN(c4ccc5c(c4)C(=O)N(C4CCC(=O)NC4=O)C5=O)CC3)c(F)c2)ncc1C(F)(F)F (stereo not shown) [Compound A37, 2-((2-((4-(((1-(2-(2,6-dioxopiperidin-3-yl)-1,3-dioxoisoindolin-5-yl)piperidin-4-yl)-amino)methyl)-3-fluorophenyl)amino)-5-(trifluoromethyl)pyrimidin-4-yl)amino)-N-methyl-benzamide]	860 pM	94%
CNC(=O)c1ccccc1Nc1nc(Nc2ccc3c(c2)CC(=O)N3CC2CCN(c3ccc4c(c3)C(=O)N(C3CCC(=O)NC3=O)C4=O)CC2)ncc1C(F)(F)F (stereo not shown) [Compound A38, 2-((2-((1-((1-(2-(2,6-dioxopiperidin-3-yl)-1,3-dioxoisoindolin-5-yl)piperidin-4-yl)methyl)-2-oxoindolin-5-yl)amino)-5-(trifluoromethyl)pyrimidin-4-yl)amino)-N-methylbenzamide]	840 pM	88%
CNC(=O)c1ccccc1Nc1nc(Nc2ccc(CN[C@@H]3CCN(c4ccc5c(c4)C(=O)N(C4CCC(=O)NC4=O)C5=O)C[C@@H]3F)cc2)ncc1C(F)(F)F (stereo partly drawn) [Compound A39, 2-((2-((4-((((3S,4R)-1-(2-(2,6-Dioxopiperidin-3-yl)-1,3-dioxoisoindolin-5-yl)-3-fluoropiperidin-4-yl)amino)methyl)phenyl)amino)-5-(trifluoromethyl)pyrimidin-4-yl)amino)-N-methylbenzamide]	710 pM	89%
